These results are taken from US20240207258A1, “HETEROCYCLIC PDK1 INHIBITORS FOR USE TO TREAT CANCER” (Viracta Therapeutics, Inc., priority 2015, published 2024).

Experiment [1] has as its target T1, Full-length phosphorylated PDK1 (Homo sapiens, UniProt O15530).
T1 sequence (O15530 1-556): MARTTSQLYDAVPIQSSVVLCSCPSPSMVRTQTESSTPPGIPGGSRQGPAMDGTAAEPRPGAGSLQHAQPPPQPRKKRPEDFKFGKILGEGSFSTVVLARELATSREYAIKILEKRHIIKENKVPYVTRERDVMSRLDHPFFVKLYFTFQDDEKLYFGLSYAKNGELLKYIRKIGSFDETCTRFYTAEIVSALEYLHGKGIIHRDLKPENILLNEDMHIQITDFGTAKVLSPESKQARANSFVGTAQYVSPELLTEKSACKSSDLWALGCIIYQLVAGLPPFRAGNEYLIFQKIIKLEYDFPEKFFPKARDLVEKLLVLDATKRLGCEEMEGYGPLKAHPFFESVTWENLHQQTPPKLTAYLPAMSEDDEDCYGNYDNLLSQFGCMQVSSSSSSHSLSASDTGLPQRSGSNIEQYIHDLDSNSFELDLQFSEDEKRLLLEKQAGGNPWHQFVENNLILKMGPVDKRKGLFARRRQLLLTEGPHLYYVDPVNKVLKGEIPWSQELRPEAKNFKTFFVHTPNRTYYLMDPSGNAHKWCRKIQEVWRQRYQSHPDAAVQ
The experiment can be described thus: Fluorescence polarization PIF-tide binding assay. The settings on record: PDK1 saturating amounts of compound, FIG. 13C.

A further experiment has as its system P-AKT. The experiment can be described thus: Western blot, AKT phosphorylation in A20 cells. Type of experiment: cell-based, murine. The protocol: For phosphoprotein analyses, cells were seeded into 10 cm petri dishes (10×10^6 cells/dish) in media supplemented with 10% FBS and penicillin/streptomycin. After cells recovered for 1 hr at 37° C., compounds were added in DMSO (0.1% final) and incubated for 4 or 24 hr at 37° C. Cells were then harvested by centrifugation and washed with cold PBS. Cell pellets were resuspended in cell extraction buffer (Invitrogen) supplemented with 2×Halt™ protease and phosphatase inhibitor cocktail (Thermo Scientific), 2 mM sodium orthovanadate, 10 mM EDTA and 4 mM PMSF. Samples were lysed by sonication and incubated on ice for 30 min. Cell debris was removed by centrifugation and protein concentrations were determined using the BCA Protein Assay Kit (Pierce). The clarified lysate was diluted in LDS sample buffer with reducing agent (Life Technologies). […] Gels were run at 110 V and proteins were transferred to a PVDF membrane. Membranes were blocked in TBS blocking buffer (Li-Cor Biosciences) for 1 hr. Primary antibodies (Cell Signaling, Sant Cruz Biotechnology) were added (1:1,000 dilution) in blocking buffer with 0.1% Tween-20 and 1:20,000 dilution of β-actin antibody and incubated for 14 hr at 4° C. Blots were washed in TBS-T. Label-conjugated goat anti-rabbit secondary antibody (IRdye® 800CW; Li-Cor Biosciences) was added in blocking buffer with 0.1% Tween-20 and 0.02% SDS and incubated for 1 hr. After washing in TBS-T followed by TBS, membranes were scanned on an Odyssey imaging system (Li-Cor Biosciences). Bands were quantitated using ImageJ.

Another experiment relates to U-2932. The experiment can be described thus: MTS cell proliferation assay, U-2932. Format: cell-based. The note with it: Homo sapiens, U2932; U-2932, 72 hr. The method, then: (§1) Cell proliferation was measured using the CellTiter 96 Aqueous Non-Radioactive Cell Proliferation Assay (Promega). The CellTiter 96® AQueous Assay is composed of solutions of a tetrazolium compound [3-(4,5-dimethylthiazol-2-yl)-5-(3-carboxymethoxyphenyl)-2-(4-sulfophenyl)-2H-tetrazolium, inner salt; MTS] and an electron coupling reagent (phenazine methosulfate) PMS. MTS is bioreduced by cells into a formazan product that is soluble in tissue culture medium. The absorbance of the formazan product at 490 nm can be measured directly from assay plates without additional processing. The quantity of formazan product as measured by the amount of 490 nm absorbance is directly proportional to the number of living cells in culture. Cells were seeded into 96-well or 384-well clear plates in a volume of 200 μL (96-well) or 50 μL (384-well) at optimized densities ranging from 1,000 to 40,000 cells per well for 96-well plates or 1,200 to 25,000 cells per well for 384-well plates depending on cell-line. After 4-6 hr recovery, serially diluted compounds in DMSO were added to the cells using (0.1% v/v final DMSO concentration). Cells were then grown at 37° C. in a humidified incubator with 5% CO2 for 72 hr. A 20:1 [3-(4,5-dimethylthiazol-2-yl)-5-(3-carboxymethoxyphenyl)-2-(4-sulfophenyl)-2H-tetrazolium](MTS):phenazine methosulfate (PMS) solution in DPBS was made immediately before use, added to each well, and cells were incubated for 1.5 hr at 37° C. The absorbance at 490 nm was then measured using a platereader. Absorbance values were normalized as percent of control (cells incubated in the presence of 0.1% v/v DMSO). Sigmoidal dose-response curves were plotted using log(inhibitor) vs. response—Variable slope (four parameters) model with a top value constrained to 100% (GraphPad Prism version 6.00 for Windows, GraphPad Software, La Jolla California USA). […] Curves for compounds that reached a plateau were matched exactly to the measurement points. […] To determine potential of compounds of the invention to affect viability of hematological cancers, cell lines representing various tumor types were selected and tested. Human cell lines tested were: MOLM-13 (acute myeloid leukemia (AML)), MV4-11 (AML), U-2932 (ABC-diffuse large B cell lymphoma), U-937 (histiocytic lymphoma), U-266 (multiple myeloma), RPMI-8226 (multiple myeloma), CMK (megakaryoblastic cell line), SU-DHL-4 (GCB-diffuse large B cell lymphoma), KG1 (AML), Mec-1 (chronic B-cell leukemia), MOLM-16 (AML), Jeko (B-cell lymphoma), WSU-DLCL2 (B-cell lymphoma), JJN3 (plasma cell leukemia), SU-DHL-6 (GCB-diffuse large B cell lymphoma), and Z-138 (mantle cell lymphoma). In addition, two murine cell lines were tested: A20 […].

The subject of a further experiment is P-PDK1. The experiment in a line: Pathway modulation in MV4-11 tumor xenografts, pPDK1. Type of experiment: in vivo, mice. The settings on record: MV4-11 tumors, IP 50 mg/kg.
Another experiment concerns C1498. The experiment in a line: MTS cell proliferation assay, C1498. Type of experiment: cell-based, murine. The settings on record: Mus musculus, C1498, 72 h, read-out: MTS proliferation assay (μM). The method, then:
(§2) Cell proliferation was measured using the CellTiter 96 Aqueous Non-Radioactive Cell Proliferation Assay (Promega). […] MTS is bioreduced by cells into a formazan product that is soluble in tissue culture medium. The absorbance of the formazan product at 490 nm can be measured directly from assay plates without additional processing. The quantity of formazan product as measured by the amount of 490 nm absorbance is directly proportional to the number of living cells in culture. Cells were seeded into 96-well or 384-well clear plates in a volume of 200 μL (96-well) or 50 μL (384-well) at optimized densities ranging from 1,000 to 40,000 cells per well for 96-well plates or 1,200 to 25,000 cells per well for 384-well plates depending on cell-line. After 4-6 hr recovery, serially diluted compounds in DMSO were added to the cells using (0.1% v/v final DMSO concentration). Cells were then grown at 37° C. in a humidified incubator with 5% CO2 for 72 hr. A 20:1 [3-(4,5-dimethylthiazol-2-yl)-5-(3-carboxymethoxyphenyl)-2-(4-sulfophenyl)-2H-tetrazolium](MTS):phenazine methosulfate (PMS) solution in DPBS was made immediately before use, added to each well, and cells were incubated for 1.5 hr at 37° C. The absorbance at 490 nm was then measured using a platereader. Absorbance values were normalized as percent of control (cells incubated in the presence of 0.1% v/v DMSO). Sigmoidal dose-response curves were plotted using log(inhibitor) vs. response—Variable slope (four parameters) model with a top value constrained to 100% (GraphPad Prism version 6.00 for Windows, GraphPad Software, La Jolla California USA). […] To determine potential of compounds of the invention to affect viability of hematological cancers, cell lines representing various tumor types were selected and tested. […] In addition, two murine cell lines were tested: A20 […].

A further experiment deals with Molm-13. The experiment can be described thus: MTS cell proliferation assay, Molm-13. Type of experiment: cell-based. The settings on record: Homo sapiens; Molm-13, 72 hr. The method, then:
as §1

For the next experiment, the system named is A20. The experiment in a line: MTS cell proliferation assay, A20. Type of experiment: cell-based, murine. The note with it: Mus musculus; A20, 72 hr. The protocol:
as §1

A further experiment relates to MV4-11 cells. The experiment in a line: Induction of apoptosis (Annexin V / propidium iodide flow cytometry). Type of experiment: cell-based, human. The protocol:
Cells were seeded in a six-well tissue culture plate in 3 mL complete growth medium (3×10^5 cells/well) and allowed to equilibrate for 1 hr at 37° C. in a humidified incubator with 5% CO2. DMSO (control), test compound, or doxorubicin was added to the wells (0.1% final DMSO concentration). Cells were returned to the incubator for 24 hrs. On the day of analysis 1×10^5 cells were labeled according to manufacturer's instructions and analyzed by flow cytometry (BD FACSCaalibur™, GH) to determine the percent of apoptotic cells (annexin V positive, AV+) and/or apoptotic dead cells (AV+ and propidium iodide positive (PI+)).

For another experiment, the system named is Jeko. The experiment can be described thus: MTS cell proliferation assay, Jeko. Format: cell-based. The settings on record: Homo sapiens, 72 hr. The method, then: as §1
A further experiment concerns RPMI-8226. The experiment in a line: MTS cell proliferation assay, RPMI-8226. Format: cell-based. The settings on record: Homo sapiens; RPMI-8226, 72 hr. The protocol: as §1
In another experiment the test system is MV4-11. The experiment in a line: MTS cell proliferation assay, MV4-11. Type of experiment: cell-based, human. The settings on record: Homo sapiens, MV4-11, 72 h, read-out: MTS proliferation assay (μM). The method, then: as §2
The subject of experiment [2] is hematologic tumor cell lines. The experiment can be described thus: MTS cell proliferation assay, panel of hematologic cancer cell lines. Format: cell-based. The settings on record: 72 hrs, percent of control. The method, then:
as §1

For experiment [3], the target named is T1, Full-length phosphorylated PDK1. The experiment can be described thus: FRET-based PIF-tide binding assay. The settings on record: 10 nM compound where stated, FIG. 13D.

From the text for P-PDK1: MV4-11 cells propagated in vitro were implanted subcutaneous into the right flank of 9-week old female NCr nu/nu mice. On the day of implant, MV4-11 cells were harvested during log phase growth and resuspended in phosphate buffered saline (PBS) containing 50% Matrigel™ (BD Biosciences) at a concentration of 1×10^8 cells/mL. […] Two weeks after implantation, animals were assigned to individual groups of 3 animals with and average tumor volume of approximately 200 mm^3. […] Eight hours post-dose, full blood volume was collected by cardiac puncture under isoflurane anesthesia and tumors were excised and snapfrozen in liquid nitrogen and stored at −80° C. until further analysis. Tumors were pulverized in liquid nitrogen using a Biopulverizer and split into two sample tubes: one for Western blot analysis and one for analysis of compound levels by LC-MS/MS. […] For MS analysis, tumor samples were homogenized with a Virsonic 100 ultrasonic homogenizer. Each sample was first weighed, and then an appropriate volume of 20:80 methanol:water was added to make a 9 mL/gram sample. Samples were then homogenized on ice, and stored frozen until analysis. Standards were prepared in BALB/c mouse plasma or blank homogenized tumor tissue. Standards and samples were analyzed on a PE Sciex API4000 instrument and compound concentration was quantified and back-calculated to ng compound per g tumor tissue and converted to M concentration assuming 1 g tumor tissue equals 1 mL volume.

As to `O=C(NCCCNc1nc(Nc2cccc(NC(=O)N3CCCC3)c2)ncc1I)c1cccs1` [BX-795, reference compound], the “PIF-tide binding to PDK1 (fluorescence polarization, words)” value in [1] is on record as “no interference with PIF-tide binding”.

With `CNc1nc(-c2ccc3c(N)n[nH]c3c2)cc(N2C[C@@H](C(=O)NC3CCCCC3)CC[C@H]2C)n1` [GSK2334470, reference compound], in the experiment on P-AKT, the “P-AKT levels” value is recorded as “barely affected”. For the same compound, the EC50 in the experiment with U-2932 came out at 986 nM; in the experiment with C1498 it was 0.358 µM; with Molm-13, 360 nM; in the experiment on A20, 490 nM; in the experiment with Jeko it was 2250 nM; in the experiment with RPMI-8226, 2900 nM. In addition, the EC50 in the experiment with MV4-11 is 0.105 µM. Also, the “pathway modulation and tumor exposure” value in the experiment with P-PDK1 was “comparable to that of 50 mg/kg GDC0941 and 1 mg/kg Compound 1 or Compound 2”. Further, in the experiment with MV4-11 cells (100 nM), the “apoptosis at 100 nM” value is recorded as “no evidence of apoptosis”. In the experiment on MV4-11 cells (24 hrs), this compound showed a concentration inducing apoptosis of over 300 nM.

Take `COc1cccc2c1C(=O)c1c(O)c3c(c(O)c1C2=O)C[C@@](O)(C(=O)CO)C[C@@H]3O[C@H]1C[C@H](N)[C@H](O)[C@H](C)O1` [doxorubicin, reference compound]: in experiment [2], the “plateau of growth inhibition curve at higher concentrations” value is recorded as under 20%.

Regarding `CN[C@@H]1C[C@H]2O[C@@](C)([C@@H]1OC)n1c3ccccc3c3c4c(c5c6ccccc6n2c5c31)C(=O)NC4` [staurosporine, reference compound], in experiment [3], the “FRET between PDK1 and PIF-tide” value is reported as “does not inhibit FRET”.
